Measured values as given in PubChem BioAssay AID2086 (NMMLSC, 2009).
Active and inactive are the calls of the source. How the calls were made is not given here.

Target: Induced myeloid leukemia cell differentiation protein Mcl-1 (Homo sapiens) (UniProt Q07820)
Assay: regulators of Bim-Mcl-1 interaction, confirmation, biochemical, bead-based flow cytometry, multiplex, HTS hits (AID 2086)
Settings: for response, inhibition or activation: at 100 µM (top of the series)

Induced myeloid leukemia cell differentiation protein Mcl-1 (Homo sapiens), sequence (Q07820 whole entry, looked up): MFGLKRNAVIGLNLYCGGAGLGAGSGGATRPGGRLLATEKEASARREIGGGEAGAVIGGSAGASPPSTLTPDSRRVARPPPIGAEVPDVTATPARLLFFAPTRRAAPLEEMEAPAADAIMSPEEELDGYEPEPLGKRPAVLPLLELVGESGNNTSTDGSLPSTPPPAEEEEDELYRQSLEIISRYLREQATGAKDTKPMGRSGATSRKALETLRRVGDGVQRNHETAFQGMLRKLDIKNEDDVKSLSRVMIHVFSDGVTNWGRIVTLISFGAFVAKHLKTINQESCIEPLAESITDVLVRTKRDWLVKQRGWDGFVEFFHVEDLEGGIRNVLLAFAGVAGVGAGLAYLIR

Row | Structure (SMILES) | response, inhibition or activation | EC50
1 | CCN(CC)c1ccc(NC(=O)COc2ccccc2C)cc1S(=O)(=O)Nc1ccccc1OC | inactive | –
2 | Cc1ccc(-c2cc(-c3ccc(F)cc3)c(C#N)c(N)n2)o1 | inactive | –
3 | CCN(CC)C(=O)COC(=O)c1cc(-c2ccco2)nc2ccccc12 | inactive | –
4 | O=C1c2ccccc2C(=O)N1CN(C(=O)COc1ccc(Cl)cc1Cl)c1cccc(F)c1 | inactive | –
5 | Clc1nc(NCc2cccnc2)nc(N2CCOCC2)n1 | inactive | –
6 | CCOc1ccccc1CNc1ccc(O)cc1 | inactive | –
7 | Cc1cc(-c2cc(-c3ccc(Cl)cc3)nc(N)c2C#N)co1 | inactive | –
8 | O=C1/C(=C\c2ccco2)NC(=S)N1c1ccccc1 | inactive | –
9 | COc1ccc(N2C(=O)C(Cl)=C(NC3C(=O)N(c4ccccc4)N(C)C3C)C2=O)cc1 (stereo unspecified) | – | inactive
10 | Cc1ccc(-c2cc(C(=O)Nc3nccs3)c3ccccc3n2)o1 | inactive | –
11 | O=C(Nc1nnc(COc2ccc(Cl)cc2)s1)c1ccco1 | inactive | –
12 | CN(CCO)c1cc(Sc2nc3ccccc3s2)c2nonc2c1[N+](=O)[O-] | inactive | –
13 | O=c1c2c(n3nnnc3n1Cc1ccccc1)-c1ccccc1CC21CCCC1 | inactive | –
14 | C=CS(=O)(=O)c1sc(Cl)c(N2CCOCC2)c1[N+](=O)[O-] | inactive | –
15 | CCN1C(=O)/C(=C\C=C2/C=CC=CN2CC)SC1=S | inactive | –
16 | COc1ccccc1NC1=C(NC(C)=O)C(=O)c2ccccc2C1=O | inactive | –

Row | Structure (SMILES) | response, inhibition or activation | EC50
17 | Cc1nnc(Sc2cc(NCCO)c([N+](=O)[O-])c3nonc23)s1 | inactive | –
18 | COc1cc(CNc2ccc3[nH]c(=O)[nH]c3c2)cc(Br)c1OCC(=O)NC(C)(C)C | inactive | –
19 | O=C1C(Cl)=C(N2CCN(c3ccccc3[N+](=O)[O-])CC2)C(=O)c2ccccc21 | inactive | –
20 | CNC(CC(=O)c1ccc([N+](=O)[O-])cc1)C(Cl)(Cl)Cl (stereo unspecified) | inactive | –
21 | CC(=O)Nc1ccc(-n2cc(-c3ccccc3)[nH]c2=S)cc1 | inactive | –
22 | CC(=O)OCCCNc1cc(Sc2nc3ccccc3s2)c2nonc2c1[N+](=O)[O-] | inactive | –
23 | Cc1ccc(-c2cc(-c3ccc(C)o3)nc(N)c2C#N)cc1 | inactive | –
24 | O=[N+]([O-])c1c(NCCCO)cc(Sc2nc3ccccc3s2)c2nonc12 | inactive | –
25 | S=c1[nH]cc(-c2ccccc2)n1-c1ccccc1 | inactive | –
26 | CCN(CC)c1ccc(NC(=O)c2ccccc2Br)cc1S(=O)(=O)Nc1ccccc1OC | inactive | –
27 | COc1ccccc1-n1c(-c2ccccc2)c[nH]c1=S | inactive | –
28 | CCN(CC)c1ccc(NC(=O)c2ccccc2F)cc1S(=O)(=O)Nc1ccccc1OC | inactive | –
29 | O=C(/C=C/c1ccc(-c2ccccc2[N+](=O)[O-])o1)c1ccccc1 | inactive | –
30 | O=C1NC(=O)C(=Cc2ccc(-c3cc(Cl)ccc3[N+](=O)[O-])o2)C(=O)N1 | inactive | –
31 | Oc1ccc(NCc2ccccc2OCc2ccccc2)cc1 | inactive | –
